Reference: ChEMBL document CHEMBL3856210, “Discovery of in vitro antitubercular agents through in silico ligand-based approaches” (Eur J Med Chem, 2016)
In brackets after ≈: the same amount, converted by molar mass.

Legend:
[1] = Drug level in human liver microsomes assessed as CYP450-mediated compound formation treated with (+/-)-1-(4-Chlorophenyl)-2-(1H-imidazol-1-yl)ethyl-4-(3,4-dichlorophenyl)piperazine-1-carboxylate at 50 uM after 60 mins in presence of NADPH by LC-MS analysis; type: ADME
[2] = Antitubercular activity against Mycobacterium tuberculosis H37Ra ATCC 25177 after 21 days by agar dilution method; type: functional; conditions: ATCC 25177, 504 h

Compound | Drug metabolism [1] | MIC [2] [µg/mL]
O=C(OC(c1ccc(Cl)cc1)C(O)n1ccnc1)N1CCN(c2ccc(Cl)c(Cl)c2)CC1 (stereo not drawn) | Metabolite_Detected | 
Cc1nn(-c2ccc(Cl)cc2)c(O)c1/C(=N/C1CC1)c1ccc(Cl)cc1 |  | > 100
CN1C(=O)C2C(N=C(Oc3ccc(Cl)cc3)N2Cc2cccc(F)c2)N(C)C1=O (stereo not drawn) |  | 64 (≈ 154 µM)
C=C(C)Cn1c(S)nnc1CCn1c2ccc(Cl)cc2c2cc(Cl)ccc21 |  | 32 (≈ 76.7 µM)
CCc1ccc(-c2cc(CN3CCSCC3)c(C)n2-c2ccc(OC)cc2)cc1 |  | 0.5 (≈ 1.23 µM)
CCOC(=O)c1cnc2c(Cl)c(Cl)ccc2c1NCc1cccnc1 |  | 32 (≈ 85.1 µM)
Cc1[nH]n(-c2ccc(Br)cc2)c(=O)c1C(=O)c1ccc(Cl)cc1 |  | 4 (≈ 10.2 µM)
Fc1ccc([C@H](c2cn(Cc3ccccc3)nn2)n2ccnc2)cc1 |  | 64 (≈ 192 µM)
CO/N=C(\c1ccc(Cl)cc1)c1c(C)nn(-c2ccccc2)c1O |  | 25 (≈ 73.1 µM)
Clc1cccc(CSc2nnc(-c3ccc(Cl)cc3Cl)o2)c1 |  | 32 (≈ 86.1 µM)
O=C(O[C@H](Cn1ccnc1)c1ccc(Cl)cc1)N1CCN(C(=O)c2ccco2)CC1 |  | 64 (≈ 149 µM)
Cc1nn(-c2ccccc2)c(O)c1C(=O)c1ccc2ccccc2c1 |  | 25 (≈ 76.1 µM)
Cc1nn(-c2ccccc2)c(O)c1C(=O)c1cccs1 |  | 50 (≈ 176 µM)
COCc1cc(=O)n2nc(C)c(-c3ccccc3OC)c2[nH]1 |  | 32 (≈ 107 µM)
Cc1nn(-c2ccccc2)c(O)c1C(=O)c1ccc(Cl)cc1 |  | 6.25 (≈ 20 µM)
O=C(O[C@H](Cn1ccnc1)c1cccc2ccccc12)N1CCN(c2ccc(Cl)c(Cl)c2)CC1 |  | 16 (≈ 32.3 µM)
Cc1nn(-c2ccccc2)c(O)c1C(=O)c1cccnc1 |  | > 100
COc1ccc(-c2cnn3c(=O)c4c([nH]c23)CCCC4)cc1OC |  | 32 (≈ 98.4 µM)
Clc1ccc(C2=CSC3=NN=C(SCc4ccccn4)C23)cc1 (stereo not drawn) |  | 64 (≈ 179 µM)
CC1=NN(c2ccc(Cl)cc2)C(=O)/C1=C\N(C)C |  | > 64
Cc1c(C(=O)c2ccc(Cl)cc2)c(=O)n(-c2ccccc2)n1Cc1ccccc1 |  | > 64
Cc1nn(-c2ccccc2)c(O)c1/C(=N/OCc1ccccc1)c1ccc(Cl)cc1 |  | > 100
O=C(Cc1noc(-c2ccncc2)n1)Nc1cc(Cl)cc(Cl)c1 |  | 32 (≈ 91.6 µM)
Cc1nn(-c2ccccc2)c(O)c1/C(=N/Cc1ccccc1)c1ccc(Cl)cc1 |  | > 100
Cc1nn(C(C)CNC(=O)C2(c3ccc(Cl)cc3)CCOCC2)c(C)c1C (stereo not drawn) |  | 64 (≈ 164 µM)
CCc1c(CN2CCSCC2)cc(-c2ccccc2F)n1-c1ccccc1F |  | 4 (≈ 10 µM)
CC1=NN(c2ccccc2)C(=O)/C1=C(/c1ccc(Cl)cc1)N1CCN(C)CC1 |  | 8 (≈ 20.3 µM)
O=C(NCCCn1ccnc1)O[C@H](Cn1ccnc1)c1ccc(F)cc1 |  | 32 (≈ 89.5 µM)
